According to patent US20250179037A1 (Jiangsu Jibeier Pharmaceutical Co., Ltd., priority 2021, published 2025):
Values after ≈ are worked out from the molar mass of the structure shown. Marks after values point to notes of the source that are not given here.

What was measured:
[1] = Test on saturated solubility in water (HPLC); format: physicochemical; conditions: for solubility property (compared with crystalline form C): conclusion from water saturation solubility table; for Solubility in 1 h / Solubility in 2 h / Solubility in 18 h: 37° C.
Method: Test on Saturated Solubility in Water:
• Chromatographic column: KromasiL C18 4.6*250 mm, 5 m • Column temperature: 30° C. flow rate: 1.0 mL/min sample size: 20 μL detection wavelength: 210 nm • Mobile phase: acetonitrile-water-glacial acetic acid (42:58:0.3) • Formulation of control solution: 10 mg of leucogen as a control product was precisely weighed, put in a 100-mL measuring flask, dissolved with the mobile phase, and diluted to the scale to afford 100 μg/mL of mother solution, and the mother solution was subjected to 10-fold, 100-fold, and 1000-fold serial dilutions to afford solutions at the concentrations of 10 μg/mL, 1 μg/mL, and 0.1 μg/mL, respectively.
Formulation of test solution: about 20 mg of 211118 batch (crystalline form A) and 211124 batch (crystalline form B) of the leucogen samples were weighed, each for 3 copies, and put in six 10-mL test tubes with stoppers respectively; 10 mL of water was added respectively; the test tubes were oscillated under the conditions of 37° C. and 100 r/min for 1 h, 2 h, and 18 h respectively; the resultants were filtered through 0.45-μm microporous filter membranes, and the filtrates were taken as the test solutions.
The control solution and the test solutions were tested under the above chromatographic conditions, separately. The area of the control solution was linearly regressed with its concentration. The saturated solubility in water was obtained from the peak areas of the test solutions.

[2] = system: mice leukopenia models (peripheral blood leukocytes); assay: Cyclophosphamide-induced mice leukopenia model, leukocyte counts; format: in vivo, male Balb/C mice; conditions: for Leukocyte Level, End of treatment: 30 mg/kg intragastric once daily for 28 days, Day 29; for Leukocyte Level, End of treatment / Leukocyte Level, Before modeling / Leukocyte Level, After modeling: X ± S; for Leukocyte Level, Before modeling / Leukocyte Level, After modeling: 30 mg/kg intragastric once daily; for Leukocyte Level, Before modeling: Day 7 after drug administration; for Leukocyte Level, After modeling: Day 15, cyclophosphamide 25 mg/kg i.p. Day 8 to Day 14; for effect on leucocyte level compared to the leucogen crystalline form C group / leucocyte levels after treatment, compared to the model control group: 30 mg/kg, after treatment, P<0.05
Method: A total of 100 male Balb/C mice with the body weight ranging from 22 g to 24 g were randomly selected and randomly divided into the following five groups: the normal control group, the model control group, the leucogen crystalline form A group, the leucogen crystalline form B group, and the leucogen crystalline form C group, 20 mice in each group. In the leucogen crystalline forms A, B and C groups, the mice were intragastrically administered with 30 mg/kg once daily for a total of 28 days. In the normal control group and the model control group, the mice were administered with an equal volume of saline once daily for a total of 28 days. In the model control group and the leucogen groups, 25 mg/kg of cyclophosphamide was intraperitoneally injected in the mice at Day 8 to Day 14 respectively to establish mice leukopenia models. Blood samples were collected from the retro-orbital venous sinus of mice before modeling, after modeling, and at the end of drug administration (i.e., Day 7, Day 15, and Day 29 after drug administration) for leukocyte counts, respectively. The experimental data were statistically processed with the SPSS 17.0 software package, and expressed as mean±standard deviation (X±S), where P<0.05 indicated there was a statistical significance.

[3] = TGA/DSC test (thermostability); format: physicochemical; conditions: for thermostability (compared with crystalline form C): conclusion from TGA/DSC table
Text: TGA and DSC Test Methods:
TGA and DCS patterns were collected on TA Discovery TGA 5500 thermogravimetric analyzer and TA Discovery DSC 2500 differential scanning calorimeter, respectively.

[4] = listed as Leucogen crystalline form A
[5] = water, 100 r/min, oscillated 1 h
[6] = water, 100 r/min, oscillated 2 h
[7] = water, 100 r/min, oscillated 18 h
[8] = listed as Leucogen crystalline form B
[9] = listed as Leucogen crystalline form C

In the case of `CCOC(=O)C(c1ccccc1)C1N[C@H](C(=O)O)CS1` (some centres unmarked), the “solubility property (compared with crystalline form C)” value [1] is reported as “better than that of the crystalline form C”, the solubility ([1]; water, 37 °C, thermodynamic from solid) is reported as at least 240 µg/mL and the solubility at 1 h ([1]; water, 37 °C, thermodynamic from solid, 100 r/min, oscillated 1 h) is reported as 115 µg/mL (≈ 390 µM). For the same compound, the solubility at 2 h ([1]; water, 37 °C, thermodynamic from solid, 100 r/min, oscillated 2 h) was 137 µg/mL (≈ 465 µM), the solubility at 18 h ([1]; water, 37 °C, thermodynamic from solid, 100 r/min, oscillated 18 h) was 241 µg/mL (≈ 816 µM) and the “Leukocyte Level, End of treatment” value [2, 4] was 9.23 ± 1.42*^Δ 10^9/L. For the same compound, the “Leukocyte Level, Before modeling” value [2, 4] was 9.92 ± 1.59 10^9/L, the “Leukocyte Level, After modeling” value [2, 4] was 3.31 ± 1.43 10^9/L and the “effect on leucocyte level compared to the leucogen crystalline form C group” value [2] was “better effect”. For the same compound, the “leucocyte levels after treatment, compared to the model control group” value [2] was “significantly increased”, the “TGA Weight Loss (%)” value ([3]; 100° C.) was 3.07 (100° C.) % and the “thermostability (compared with crystalline form C)” value [3] was “better than that of the crystalline form C”.
With `CCOC(=O)C(c1ccccc1)C1N[C@H](C(=O)O)CS1` (single isomer, unassigned) the “solubility property (compared with crystalline form C)” value [1] was “better than that of the crystalline form C”, the solubility in water ([1]; listed as crystalline form B of leucogen) was at least 256 µg/mL and the “Solubility in 1 h” value [1, 5] was 161.68 µg/mL (≈ 547 µM). The “Solubility in 2 h” value [1, 6] was 177.41 µg/mL (≈ 601 µM), the “Solubility in 18 h” value [1, 7] was 256.62 µg/mL (≈ 869 µM) and the “Leukocyte Level, End of treatment” value [2, 8] was 8.98 ± 1.13*^Δ 10^9/L. The “Leukocyte Level, Before modeling” value [2, 8] was 9.63 ± 0.99 10^9/L, the “Leukocyte Level, After modeling” value [2, 8] was 3.46 ± 1.24 10^9/L and the “effect on leucocyte level compared to the leucogen crystalline form C group” value [2] was “better effect”. For the same compound, the “leucocyte levels after treatment, compared to the model control group” value [2] was “significantly increased”, the “TGA Weight Loss (%)” value ([3]; 150° C.) was 0.46 (150° C.) % and the “thermostability (compared with crystalline form C)” value [3] was “better than that of the crystalline form C”.
For `CCOC(=O)C(c1ccccc1)C1N[C@H](C(=O)O)CS1` (single isomer, unassigned) [reference compound], the “Solubility in 1 h” value [1, 5] was 112.64 µg/mL (≈ 381 µM), the “Solubility in 2 h” value [1, 6] was 133.16 µg/mL (≈ 451 µM) and the “Solubility in 18 h” value [1, 7] was 227.89 µg/mL (≈ 772 µM). The “Leukocyte Level, End of treatment” value [2, 9] was 6.05 ± 1.56* 10^9/L, the “Leukocyte Level, Before modeling” value [2, 9] was 9.98 ± 1.56 10^9/L and the “Leukocyte Level, After modeling” value [2, 9] was 3.32 ± 0.89 10^9/L. For the same compound, the “leucocyte levels after treatment, compared to the model control group” value [2] was “significantly increased” and the “TGA Weight Loss (%)” value ([3]; 70° C.) was 3.54 (70° C.) %.
